Measured values published in the kinase profiling compilation of Christmann-Franck et al. (2016).

Columns and labels:
Assay in all cases: KINOMEscan competition binding
Settings in all cases: compound 10.0 µM
ACVR1B (human) = ACVR1B (human) (UniProt P36896)
AKT3 (human) = AKT3 (human) (UniProt Q9Y243)
BMP2K (human) = BMP2K (human) (UniProt Q9NSY1)
BRSK2 (human) = BRSK2 (human) (UniProt Q8IWQ3)
CAMK2G (human) = CAMK2G (human) (UniProt Q13555)
CDC42BPA (human) = CDC42BPA (human) (UniProt Q5VT25)
CSNK1D (human) = CSNK1D (human) (UniProt P48730)
CSNK2A1 (human) = CSNK2A1 (human) (UniProt P68400)
Chain of CSNK2A1 (human) (P68400 whole entry, looked up): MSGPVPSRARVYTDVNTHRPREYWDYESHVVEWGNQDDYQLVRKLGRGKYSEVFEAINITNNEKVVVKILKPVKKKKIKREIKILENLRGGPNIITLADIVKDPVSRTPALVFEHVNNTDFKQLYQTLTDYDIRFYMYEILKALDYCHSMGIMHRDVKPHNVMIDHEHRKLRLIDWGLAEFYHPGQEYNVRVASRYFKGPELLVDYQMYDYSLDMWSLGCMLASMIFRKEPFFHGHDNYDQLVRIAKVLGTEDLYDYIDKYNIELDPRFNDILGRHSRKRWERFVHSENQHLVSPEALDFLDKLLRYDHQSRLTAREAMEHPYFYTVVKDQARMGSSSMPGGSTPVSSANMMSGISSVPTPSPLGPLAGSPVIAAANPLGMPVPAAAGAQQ

CSNK2A2 (human) = CSNK2A2 (human) (UniProt P19784)
[1] = tested on: EGFR (human), P00533 [746-750 del]
[2] = tested on: EGFR (human), P00533 [752-759 del]
EPHB2 (human) = EPHB2 (human) (UniProt P29323)
[3] = tested on: FLT3 (human), P36888 [K663Q]
FYN (human) = FYN (human) (UniProt P06241)
GAK (human) = GAK (human) (UniProt O14976)
[4] = molecular target: JAK2 JH1 catalytic (human) (UniProt O60674)
KDR (human) = KDR (human) (UniProt P35968)
KIT (human) = KIT (human) (UniProt P10721)
Chain of KIT (human) (P10721 whole entry, looked up): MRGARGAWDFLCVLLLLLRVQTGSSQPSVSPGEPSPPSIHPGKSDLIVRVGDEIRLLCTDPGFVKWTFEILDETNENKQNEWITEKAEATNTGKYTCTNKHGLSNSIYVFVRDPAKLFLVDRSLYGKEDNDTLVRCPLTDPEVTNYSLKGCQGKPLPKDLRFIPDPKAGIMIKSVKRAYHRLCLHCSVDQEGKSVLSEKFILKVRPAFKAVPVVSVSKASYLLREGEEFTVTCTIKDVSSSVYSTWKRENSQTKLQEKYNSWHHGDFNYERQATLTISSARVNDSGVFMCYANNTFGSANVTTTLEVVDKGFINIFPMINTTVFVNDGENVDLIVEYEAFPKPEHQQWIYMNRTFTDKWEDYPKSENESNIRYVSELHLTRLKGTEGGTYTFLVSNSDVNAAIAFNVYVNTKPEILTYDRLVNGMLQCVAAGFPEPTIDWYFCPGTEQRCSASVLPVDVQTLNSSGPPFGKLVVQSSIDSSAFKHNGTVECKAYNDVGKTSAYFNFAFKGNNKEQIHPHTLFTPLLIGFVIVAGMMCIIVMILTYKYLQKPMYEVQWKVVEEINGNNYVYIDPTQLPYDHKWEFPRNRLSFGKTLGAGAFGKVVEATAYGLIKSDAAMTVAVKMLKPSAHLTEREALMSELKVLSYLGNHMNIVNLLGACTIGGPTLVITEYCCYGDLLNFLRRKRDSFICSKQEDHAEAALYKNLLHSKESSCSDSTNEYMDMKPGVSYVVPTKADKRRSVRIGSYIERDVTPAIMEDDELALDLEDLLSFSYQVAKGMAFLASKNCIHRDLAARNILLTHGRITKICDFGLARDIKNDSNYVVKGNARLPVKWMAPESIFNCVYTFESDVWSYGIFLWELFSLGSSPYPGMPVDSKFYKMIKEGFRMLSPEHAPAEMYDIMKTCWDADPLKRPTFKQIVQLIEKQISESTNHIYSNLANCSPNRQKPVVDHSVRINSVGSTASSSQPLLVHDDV

LATS1 (human) = LATS1 (human) (UniProt O95835)
MAP3K10 (human) = MAP3K10 (human) (UniProt Q02779)
Chain of MAP3K10 (human) (Q02779 whole entry, looked up): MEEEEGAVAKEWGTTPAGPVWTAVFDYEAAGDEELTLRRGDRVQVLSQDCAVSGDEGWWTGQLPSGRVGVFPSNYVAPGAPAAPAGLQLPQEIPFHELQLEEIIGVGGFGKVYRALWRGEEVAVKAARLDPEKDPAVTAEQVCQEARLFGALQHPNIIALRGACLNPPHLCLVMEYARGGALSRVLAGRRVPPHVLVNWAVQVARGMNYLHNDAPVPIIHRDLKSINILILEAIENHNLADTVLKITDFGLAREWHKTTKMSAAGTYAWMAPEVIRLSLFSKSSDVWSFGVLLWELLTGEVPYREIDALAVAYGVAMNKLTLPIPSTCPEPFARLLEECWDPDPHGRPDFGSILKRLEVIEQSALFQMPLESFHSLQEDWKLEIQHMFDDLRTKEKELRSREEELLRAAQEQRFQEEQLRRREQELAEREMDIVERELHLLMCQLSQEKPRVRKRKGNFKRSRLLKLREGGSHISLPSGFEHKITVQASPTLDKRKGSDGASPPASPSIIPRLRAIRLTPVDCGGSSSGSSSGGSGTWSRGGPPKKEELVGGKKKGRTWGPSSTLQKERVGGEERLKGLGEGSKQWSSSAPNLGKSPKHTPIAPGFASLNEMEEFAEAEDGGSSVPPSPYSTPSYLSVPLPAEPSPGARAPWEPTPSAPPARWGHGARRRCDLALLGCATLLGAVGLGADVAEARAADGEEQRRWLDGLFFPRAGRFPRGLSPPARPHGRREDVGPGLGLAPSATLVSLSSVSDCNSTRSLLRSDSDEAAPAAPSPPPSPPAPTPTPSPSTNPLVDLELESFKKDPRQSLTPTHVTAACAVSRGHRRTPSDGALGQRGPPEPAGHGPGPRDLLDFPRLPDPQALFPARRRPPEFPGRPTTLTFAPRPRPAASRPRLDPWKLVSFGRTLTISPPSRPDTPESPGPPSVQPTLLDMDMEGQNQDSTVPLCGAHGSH

MAP3K11 (human) = MAP3K11 (human) (UniProt Q16584)
MAP3K12 (human) = MAP3K12 (human) (UniProt Q12852)
Chain of MAP3K12 (human) (Q12852 whole entry, looked up): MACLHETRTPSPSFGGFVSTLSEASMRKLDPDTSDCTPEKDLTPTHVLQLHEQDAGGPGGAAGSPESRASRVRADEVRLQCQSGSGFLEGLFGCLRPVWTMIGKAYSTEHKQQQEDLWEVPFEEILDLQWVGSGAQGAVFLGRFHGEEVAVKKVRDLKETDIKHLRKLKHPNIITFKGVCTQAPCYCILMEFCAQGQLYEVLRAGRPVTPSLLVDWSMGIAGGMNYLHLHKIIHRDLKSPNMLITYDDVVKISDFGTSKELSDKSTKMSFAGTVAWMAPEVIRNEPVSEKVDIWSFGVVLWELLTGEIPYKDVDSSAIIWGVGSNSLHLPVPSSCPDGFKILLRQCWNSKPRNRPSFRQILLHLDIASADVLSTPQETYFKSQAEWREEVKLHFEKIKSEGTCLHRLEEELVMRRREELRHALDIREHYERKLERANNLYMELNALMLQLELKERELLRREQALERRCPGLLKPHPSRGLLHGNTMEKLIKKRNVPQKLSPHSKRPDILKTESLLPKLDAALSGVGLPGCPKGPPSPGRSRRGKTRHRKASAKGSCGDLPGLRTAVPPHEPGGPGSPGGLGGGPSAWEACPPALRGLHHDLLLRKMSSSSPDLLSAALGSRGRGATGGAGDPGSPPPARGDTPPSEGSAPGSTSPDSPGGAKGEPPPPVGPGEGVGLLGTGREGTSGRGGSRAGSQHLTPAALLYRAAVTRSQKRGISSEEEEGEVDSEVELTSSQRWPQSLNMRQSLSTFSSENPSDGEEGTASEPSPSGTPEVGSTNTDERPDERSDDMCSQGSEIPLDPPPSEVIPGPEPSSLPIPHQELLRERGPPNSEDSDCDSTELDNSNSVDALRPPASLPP

MAPK15 (human) = MAPK15 (human) (UniProt Q8TD08)
NEK9 (human) = NEK9 (human) (UniProt Q8TD19)
NUAK1 (human) = NUAK1 (human) (UniProt O60285)
PAK7 (human) = PAK7 (human) (UniProt Q9P286)
PIM3 (human) = PIM3 (human) (UniProt Q86V86)
PIP5K1A (human) = PIP5K1A (human) (UniProt Q99755)
PLK1 (human) = PLK1 (human) (UniProt P53350)
PRKCQ (human) = PRKCQ (human) (UniProt Q04759)
PRKD2 (human) = PRKD2 (human) (UniProt Q9BZL6)
PRKD3 (human) = PRKD3 (human) (UniProt O94806)
Chain of PRKD3 (human) (O94806 whole entry, looked up): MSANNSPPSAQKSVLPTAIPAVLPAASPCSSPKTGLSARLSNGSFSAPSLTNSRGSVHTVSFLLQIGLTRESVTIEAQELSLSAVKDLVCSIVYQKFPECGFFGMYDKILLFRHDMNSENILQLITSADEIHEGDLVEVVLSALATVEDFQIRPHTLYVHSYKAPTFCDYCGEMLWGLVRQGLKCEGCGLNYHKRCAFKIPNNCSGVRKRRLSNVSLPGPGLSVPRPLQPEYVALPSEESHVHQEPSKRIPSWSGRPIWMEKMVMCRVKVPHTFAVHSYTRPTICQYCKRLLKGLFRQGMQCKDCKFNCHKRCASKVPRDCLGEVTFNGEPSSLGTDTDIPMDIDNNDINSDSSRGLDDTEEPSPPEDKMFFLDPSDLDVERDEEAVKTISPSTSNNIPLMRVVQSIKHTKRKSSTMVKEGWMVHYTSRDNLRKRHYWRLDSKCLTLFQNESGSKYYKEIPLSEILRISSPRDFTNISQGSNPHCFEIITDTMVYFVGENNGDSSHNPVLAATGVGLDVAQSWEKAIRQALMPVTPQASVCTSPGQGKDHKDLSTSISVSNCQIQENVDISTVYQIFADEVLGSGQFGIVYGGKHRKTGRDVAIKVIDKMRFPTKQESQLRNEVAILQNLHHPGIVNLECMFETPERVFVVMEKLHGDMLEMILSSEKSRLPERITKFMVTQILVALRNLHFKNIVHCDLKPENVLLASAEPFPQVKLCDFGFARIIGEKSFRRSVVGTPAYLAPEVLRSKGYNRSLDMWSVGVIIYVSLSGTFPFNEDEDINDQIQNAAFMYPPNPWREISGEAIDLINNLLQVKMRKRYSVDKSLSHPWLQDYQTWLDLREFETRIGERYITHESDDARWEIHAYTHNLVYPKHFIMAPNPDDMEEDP

PTK6 (human) = PTK6 (human) (UniProt Q13882)
RET (human) = RET (human) (UniProt P07949)
SIK2 (human) = SIK2 (human) (UniProt Q9H0K1)
SLK (human) = SLK (human) (UniProt Q9H2G2)
STK38L (human) = STK38L (human) (UniProt Q9Y2H1)
Chain of STK38L (human) (Q9Y2H1 whole entry, looked up): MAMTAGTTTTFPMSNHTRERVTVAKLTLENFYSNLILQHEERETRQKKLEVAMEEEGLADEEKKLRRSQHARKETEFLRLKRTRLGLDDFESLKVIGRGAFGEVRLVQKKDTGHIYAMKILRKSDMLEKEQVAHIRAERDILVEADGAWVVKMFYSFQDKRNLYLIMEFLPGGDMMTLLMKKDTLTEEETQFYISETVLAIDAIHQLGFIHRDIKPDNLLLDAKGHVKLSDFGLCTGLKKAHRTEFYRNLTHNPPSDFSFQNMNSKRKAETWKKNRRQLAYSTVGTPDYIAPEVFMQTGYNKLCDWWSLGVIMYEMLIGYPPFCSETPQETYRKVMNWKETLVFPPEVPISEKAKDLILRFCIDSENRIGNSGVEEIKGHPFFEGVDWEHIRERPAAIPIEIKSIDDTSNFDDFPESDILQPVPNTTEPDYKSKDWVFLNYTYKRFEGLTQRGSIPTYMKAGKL

SYK (human) = SYK (human) (UniProt P43405)
TTK (human) = TTK (human) (UniProt P33981)
[5] = molecular target: TYK2 JH2 pseudokinase (human) (UniProt P29597)
TYRO3 (human) = TYRO3 (human) (UniProt Q06418)
YES1 (human) = YES1 (human) (UniProt P07947)

Chain of ACVR1B (human) (P36896 whole entry, looked up): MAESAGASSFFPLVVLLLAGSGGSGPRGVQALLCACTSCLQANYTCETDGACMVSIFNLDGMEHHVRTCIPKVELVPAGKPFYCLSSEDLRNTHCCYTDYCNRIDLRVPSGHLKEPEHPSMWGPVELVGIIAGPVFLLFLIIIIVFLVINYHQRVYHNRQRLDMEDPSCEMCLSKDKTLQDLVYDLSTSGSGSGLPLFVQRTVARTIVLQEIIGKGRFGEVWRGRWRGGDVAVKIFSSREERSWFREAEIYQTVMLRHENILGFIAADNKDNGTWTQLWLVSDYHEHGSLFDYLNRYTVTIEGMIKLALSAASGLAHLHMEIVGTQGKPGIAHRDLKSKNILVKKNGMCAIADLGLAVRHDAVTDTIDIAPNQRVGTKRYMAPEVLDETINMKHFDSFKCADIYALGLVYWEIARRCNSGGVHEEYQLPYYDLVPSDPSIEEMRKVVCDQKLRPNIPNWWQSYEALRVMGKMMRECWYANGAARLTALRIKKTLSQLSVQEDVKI

Question: For `CCOc1cc(N2CCC(N3CCCCC3)CC2)ccc1Nc1nc(Nc2ccccc2S(=O)(=O)C(C)C)c2cn[nH]c2n1`, which kinase still bound, per cent of control (ACVR1B (human)) is on record?
Answer: The kinase still bound, per cent of control was 100%.

Question: What about the kinase still bound, per cent of control (AKT3 (human)) of the same compound?
Answer: Its kinase still bound, per cent of control is 100%.

Question: And the kinase still bound, per cent of control (BMP2K (human))?
Answer: Its kinase still bound, per cent of control is 47%.

Question: What about the kinase still bound, per cent of control (BRSK2 (human)) of the same compound?
Answer: Its kinase still bound, per cent of control is 94%.

Question: And the kinase still bound, per cent of control (CAMK2G (human))?
Answer: The kinase still bound, per cent of control was 71%.

Question: What about the kinase still bound, per cent of control (CDC42BPA (human)) of the same compound?
Answer: Its kinase still bound, per cent of control is 100%.

Question: And the kinase still bound, per cent of control (CSNK1D (human))?
Answer: The kinase still bound, per cent of control was 92%.

Question: What about the kinase still bound, per cent of control (CSNK2A1 (human)) of the same compound?
Answer: The kinase still bound, per cent of control was 100%.

Question: And the kinase still bound, per cent of control (CSNK2A2 (human))?
Answer: Its kinase still bound, per cent of control is 94%.

Question: What about the kinase still bound, per cent of control [1] of the same compound?
Answer: Its kinase still bound, per cent of control is 20%.

Question: And the kinase still bound, per cent of control [2]?
Answer: The kinase still bound, per cent of control was 49%.

Question: And the kinase still bound, per cent of control (EPHB2 (human))?
Answer: The kinase still bound, per cent of control was 100%.

Question: What about the kinase still bound, per cent of control [3] of the same compound?
Answer: Its kinase still bound, per cent of control is 100%.

Question: What about the kinase still bound, per cent of control (FYN (human)) of the same compound?
Answer: The kinase still bound, per cent of control was 100%.

Question: And the kinase still bound, per cent of control (GAK (human))?
Answer: Its kinase still bound, per cent of control is 6%.

Question: What about the kinase still bound, per cent of control [4] of the same compound?
Answer: The kinase still bound, per cent of control was 50%.

Question: And the kinase still bound, per cent of control (KDR (human))?
Answer: Its kinase still bound, per cent of control is 100%.

Question: And the kinase still bound, per cent of control (KIT (human))?
Answer: Its kinase still bound, per cent of control is 87%.

Question: And the kinase still bound, per cent of control (LATS1 (human))?
Answer: Its kinase still bound, per cent of control is 100%.

Question: What about the kinase still bound, per cent of control (MAP3K10 (human)) of the same compound?
Answer: The kinase still bound, per cent of control was 100%.

Question: What about the kinase still bound, per cent of control (MAP3K11 (human)) of the same compound?
Answer: Its kinase still bound, per cent of control is 100%.

Question: And the kinase still bound, per cent of control (MAP3K12 (human))?
Answer: Its kinase still bound, per cent of control is 100%.

Question: What about the kinase still bound, per cent of control (MAPK15 (human)) of the same compound?
Answer: Its kinase still bound, per cent of control is 100%.

Question: And the kinase still bound, per cent of control (NEK9 (human))?
Answer: The kinase still bound, per cent of control was 100%.

Question: What about the kinase still bound, per cent of control (NUAK1 (human)) of the same compound?
Answer: Its kinase still bound, per cent of control is 100%.

Question: What about the kinase still bound, per cent of control (PAK7 (human)) of the same compound?
Answer: The kinase still bound, per cent of control was 80%.

Question: What about the kinase still bound, per cent of control (PIM3 (human)) of the same compound?
Answer: The kinase still bound, per cent of control was 100%.

Question: And the kinase still bound, per cent of control (PIP5K1A (human))?
Answer: Its kinase still bound, per cent of control is 39%.

Question: And the kinase still bound, per cent of control (PLK1 (human))?
Answer: The kinase still bound, per cent of control was 47%.

Question: And the kinase still bound, per cent of control (PRKCQ (human))?
Answer: The kinase still bound, per cent of control was 100%.

Question: And the kinase still bound, per cent of control (PRKD2 (human))?
Answer: Its kinase still bound, per cent of control is 96%.

Question: And the kinase still bound, per cent of control (PRKD3 (human))?
Answer: The kinase still bound, per cent of control was 36%.

Question: What about the kinase still bound, per cent of control (PTK6 (human)) of the same compound?
Answer: The kinase still bound, per cent of control was 10%.

Question: What about the kinase still bound, per cent of control (RET (human)) of the same compound?
Answer: The kinase still bound, per cent of control was 100%.

Question: And the kinase still bound, per cent of control (SIK2 (human))?
Answer: The kinase still bound, per cent of control was 85%.

Question: What about the kinase still bound, per cent of control (SLK (human)) of the same compound?
Answer: The kinase still bound, per cent of control was 14%.

Question: And the kinase still bound, per cent of control (STK38L (human))?
Answer: Its kinase still bound, per cent of control is 100%.

Question: What about the kinase still bound, per cent of control (SYK (human)) of the same compound?
Answer: The kinase still bound, per cent of control was 100%.

Question: What about the kinase still bound, per cent of control (TTK (human)) of the same compound?
Answer: Its kinase still bound, per cent of control is 6.5%.

Question: And the kinase still bound, per cent of control [5]?
Answer: The kinase still bound, per cent of control was 63%.

Question: And the kinase still bound, per cent of control (TYRO3 (human))?
Answer: The kinase still bound, per cent of control was 100%.

Question: What about the kinase still bound, per cent of control (YES1 (human)) of the same compound?
Answer: The kinase still bound, per cent of control was 84%.
